Values of other authors, collected in patent publication US20070258969A1, “Compositions and methods for targeting metastatic tumors using multivalent ligand-linked carbohydrate polymers” (priority 2004, published 2007).

Experiments:
L-1 sarcoma cells = settings: in vivo
B16 melanoma cells = settings: in vivo

Compound | liver metastasis of L-1 sarcoma cells (L-1 sarcoma cells) | metastasis of B16 melanoma cells (B16 melanoma cells)
O=C[C@H](O)[C@@H](O)[C@@H](O)[C@H](O)CO [D-galactose] | inhibited liver metastasis | 
CC(=O)N[C@H]1[C@H](O[C@H]2[C@@H](O)[C@@H](CO)O[C@@H](O[C@H]3[C@H](O)[C@@H](O)C(O)O[C@@H]3CO)[C@@H]2O)O[C@H](CO)[C@@H](O)[C@@H]1O[C@@H]1O[C@H](CO)[C@H](O)[C@H](O)[C@H]1O (stereo partly shown) [lacto-N-tetrose] |  | inhibit metastasis
CO[C@H]1O[C@H](CO)[C@@H](O[C@@H]2O[C@H](CO)[C@H](O)[C@H](O)[C@H]2O)[C@H](O)[C@H]1O [methyl-α-D-lactoside] |  | inhibit metastasis
arabinogalactose | inhibited liver metastasis | 
